Assay [1] relates to PPAR. The following applies: shown in US2006/0167012A1 and US2006/0205736A1; cited from earlier work.
In assay [2] the test system is NASH mice. Briefly: Glucose tolerance testing (ipGTT) in NASH mice. Format: in vivo, C57B1/6J mice. How it is done: Following 120-150 days on the HFD, mice in the NASH group were treated with Compound 2 (5 or 10 mg/Kg/day) or vehicle (10% Encapsin) for 42 days. Fasting and post prandial (PP) blood draws were taken at the beginning of the study (compound treatment) to identify and confirm the NASH group and during the study to evaluate various pharmacological responses. Since the NASH mice are severely hyperinsulinemic compared to NC mice, glucose tolerance testing (GTT, measures peripheral insulin resistance) was performed to evaluate the effect of Compound 2 on improvement of peripheral insulin sensitivity. […] Body weight and food intake was measured throughout the study.
Mice were then fasted overnight at 1700 hours for an experiment the following morning at 9:30 am. The animals were restrained in a towel to reduce handling stress and blood collection was from tail nick. Heat lamps were turned on 5 minutes prior to blood draws to warm animals slightly facilitating the flow of blood resulting in a decreased collection time. Blood glucose was measured using an Accu-check Compact Monitoring Kit (Roche Diagnostics, Indianapolis, Ind., Cat #3149137). Blood was also collected (˜100 μl) into EDTA microvettes (Sarstedt, Newton, N.C., Cat#16.444.100) for insulin ELISA analysis. After baseline blood collection, 2 g/kg Dextrose (Hospira, Lake Forest, Ill., NDC#0409-6648-02) was administered by intraperitoneal injection followed by glucose readings and blood draws (˜50 ul) at time points of 15, 30, 60, and 120 minutes post glucose challenge. Mice were kept in their home cages in between collection intervals.
Insulin fasting plasma samples were tested using Mercodia ultra sensitive mouse insulin ELISA: 2.5 μL EDTA plasma, ALPCO Diagnostics, Uppsala, Sweden, Cat #08-10-1150-99, LOQ (0.22-7.1 μg/L). Mouse JE/MCP-1 post prandial samples were collected at sacrifice. 12.5 μL EDTA plasma, R & D Systems, Minneapolis, Minn., Cat # MFE00, LOQ (15.6-1000 pg/mL).

The test system of assay [3] is NASH mice. The experiment in a line: Macrophage infiltration in liver, F4/80 staining. The format is in vivo, C57B1/6J mice. How it is done:
NASH-induced inflammation and lipid accumulation in the liver promotes infiltration of monocytes from peripheral circulation into the liver. Hepatic inflammatory status of NASH mice was assessed by histological assessment of the presence of macrophage specific markers including F4/80 in liver sections. An F4/80 antibody stain used is to quantitatively differentiate monocyte/macrophage cell population in the blood and tissue: infiltrating monocytes are F4/80 bright whereas liver macrophages (Kupffer cells) are F4/80 dull. There was a striking increase in the number of F4/80 bright macrophages in the liver of the NASH mice (data not shown) that is attenuated by treatment with Compound 2 (42 days, 5 mg/Kg/day) treated NASH (FIG. 4).
F4/80 stain was used to illustrate macrophage infiltration in liver tissue. The following protocol was followed: • 1. Check the number of sections per slide; if there is 1 section then use 2 slides from the same group per staining run (1 for ctrl IgG and 1 for primary antibody of interest). If there are 2 sections per slide then use 1 slide per group per run and separate the sections using a PAP pen. • 2. De-paraffin slides through 3×5-minutes Propar clearant, and re-hydrate with 5-minutes each in decreased concentrations of reagent alcohol to water (100%, 95%, 75%, water). • 3. Use Citrate buffer pH 6.0 for HIER (heat-induced epitope retrieval). […]

Setting [4] is: oral administration, NASH mice, p<0.05 vs. vehicle.

Counter-ions that a name gives are not always drawn.

In the case of `C[C@@H]1CN(Cc2ccc(OC(F)(F)F)cc2)C[C@H](C)N1S(=O)(=O)c1cccc2c1C[C@@H](C(=O)O)C2` [Compound 2, (S)-4-[cis-2,6-Dimethyl-4-(4-trifluoromethoxy-benzyl)-piperazine-1-sulfonyl]-indan-2-carboxylic acid tosylate], the PPAR modulator activity result in assay [1] was “PPAR modulators”. In assay [2] (21 days, 10 mg/Kg/day, compared to vehicle-treated animals), the “insulin secretion during ipGTT” value is recorded as “reduced insulin secretion”. In addition, the peripheral insulin resistance entry in assay [2] (21 days, 10 mg/Kg/day, ipGTT, compared to vehicle-treated animals) is “improved peripheral insulin resistance”. In addition, in assay [2] (setting [4]), the glucose disposal result is given as “improved glucose disposal” and the insulin sensitivity entry is reported as “improved insulin sensitivity”. For the same compound, the “number of F4/80 bright macrophages in the liver of the NASH mice” value in assay [3] (42 days, 5 mg/Kg/day, FIG. 4) is listed as “attenuated”. The “macrophage infiltration in the liver” value in assay [3] (oral administration, NASH mice, summary) is given as “attenuated macrophage infiltration”.

The values above are taken from patent US9463189B2 (BPV Holdings, LLC, priority 2007, dated 2016).
